Experimental data taken from patent publication US9034882B2, “Inhibitors of human immunodeficiency virus replication” (priority 2012, dated 2015).

Test system: recombinant NL-Rluc virus
Experiment: Inhibition of HIV replication (NL-RLuc luciferase reporter virus in MT-2 cells)
Assay type: cell-based
Conditions: Human immunodeficiency virus 1, MT2, 120 h, read-out: Activity

Which EC50 does the source give for `Cc1nc2cc(-c3cccc(Cc4ccccc4)n3)nn2c(N2CCC(C)(C)CC2)c1[C@H](OC(C)(C)C)C(=O)O` [Example 70, (S)-2-(2-(6-Benzylpyridin-2-yl)-7-(4,4-dimethylpiperidin-1-yl)-5-methylpyrazolo[1,5-a]pyrimidin-6-yl)-2-(tert-butoxy)acetic acid] here?
The EC50 was 0.1 to 1 µM.

Which EC50 does the source give for `Cc1nc2c(-c3cccc(Cl)c3)cnn2c(N2CCC(C)(C)CC2)c1C(OC(C)(C)C)C(=O)O` (stereo not shown) [Example 36, 2-(tert-butoxy)-2-(3-(3-chlorophenyl)-7-(4,4-dimethylpiperidin-1-yl)-5-pyrazolo[1,5a]pyrimidin-6-yl)acetic acid] here?
Its EC50 is 0.1 to 1 µM.

For `Cc1nc2cc(-c3ccccc3)nn2c(N2CCCC(F)C2)c1C(OC(C)(C)C)C(=O)O` (stereo not shown) [Example 18], which EC50 is on record?
Its EC50 is > 1 µM.

How did the EC50 turn out when `Cc1nc2cc(-c3cc(-c4ccccc4)ccn3)nn2c(N2CCC(C)(C)CC2)c1[C@H](OC(C)(C)C)C(=O)O` [Example 65, (S)-2-(tert-Butoxy)-2-(7-(4,4-dimethylpiperidin-1-yl)-5-methyl-2-(4-phenylpyridin-2-yl)pyrazolo[1,5-a]pyrimidin-6-yl)acetic acid] was run?
The EC50 was 0.1 to 1 µM.

Which EC50 does the source give for `Cc1nc2cc(-c3cccc(-c4ccc5cnn(C)c5c4)c3)nn2c(N2CCC3(CC2)CC3)c1[C@H](OC(C)(C)C)C(=O)O` [Example 60, (S)-2-(tert-Butoxy)-2-(5-methyl-2-(3-(1-methyl-1H-indazol-6-yl)phenyl)-7-(6-azaspiro[2.5]octan-6-yl)pyrazolo[1,5-a]pyrimidin-6-yl)acetic acid] here?
The EC50 was < 0.1 µM.

For `Cc1nc2cc(-c3ccccc3)nn2c(N2CCC(C(C)(C)C)CC2)c1C(OC(C)(C)C)C(=O)O` (stereo not shown) [Example 17], which EC50 is on record?
Its EC50 is > 1 µM.

How did the EC50 turn out when `Cc1nc2cc(-c3ccccc3)nn2c(N2CCC3(CCCC3)CC2)c1[C@H](OC(C)(C)C)C(=O)O` [Example 27, (S)-2-(tert-butoxy)-2-(5-methyl-2-phenyl-7-(8-azaspiro[4.5]decan-8-yl)pyrazolo[1,5-a]pyrimidin-6-yl) acetic acid] was run?
Its EC50 is > 1 µM.

With `Cc1nc2cc(-c3ccccc3)nn2c(N2CCC(C(C)C)CC2)c1C(OC(C)(C)C)C(=O)O` (stereo not shown) [Example 16] as the molecule, how does the EC50 read?
The EC50 was 0.1 to 1 µM.

Which EC50 does the source give for `Cc1nc2cc(-c3ccccc3)nn2c(N2CCC(C)(C)CC2)c1C(OC(C)(C)C)C(=O)O` (stereo not shown) [Example 1, 2-(tert-butoxy)-2-(7-(4,4-dimethylpiperidin-1-yl)-5-methyl-2-phenylpyrazolo[1,5a]pyrimidin-6-yl)acetic acid] here?
Its EC50 is 0.1 to 1 µM.

Which EC50 does the source give for `Cc1nc2cc(-c3cccc(-c4cccc(F)c4)c3)nn2c(N2CCC3(CC2)CC3)c1[C@H](OC(C)(C)C)C(=O)O` [Example 53, (S)-2-(tert-Butoxy)-2-(2-(3′-fluoro-[1,1′-biphenyl]-3-yl)-5-methyl-7-(6-azaspiro[2.5]octan-6-yl)pyrazolo[1,5-a]pyrimidin-6-yl)acetic acid] here?
Its EC50 is 0.1 to 1 µM.

How did the EC50 turn out when `Cc1nc2cc(-c3cccc(-c4ccccc4)c3)nn2c(N2CCC3(CC2)CC3)c1[C@H](OC(C)(C)C)C(=O)O` [Example 47, (S)-2-(2-([1,1′-Biphenyl]-3-yl)-5-methyl-7-(6-azaspiro[2.5]octan-6-yl)pyrazolo[1,5-a]pyrimidin-6-yl)-2-(tert-butoxy)acetic acid] was run?
The EC50 was 0.1 to 1 µM.

`Cc1nc2cc(-c3ccccc3)nn2c(N2CCCCCC2)c1C(OC(C)(C)C)C(=O)O` (stereo not shown) [Example 6, 2(7-(azepan-1-yl)-5-methyl-2-phenylpyrazolo[1,5a]pyrimidin-6-yl)-2-(tert-butoxy)-acetic acid] was tested. Which EC50 did it give?
The EC50 was > 1 µM.

With `Cc1nc2cc(-c3ccccc3)nn2c(N2CCC(C(N)=O)CC2)c1C(OC(C)(C)C)C(=O)O` (stereo not shown) [Example 24] as the molecule, how does the EC50 read?
Its EC50 is > 1 µM.

Same assay, conditions: Human immunodeficiency virus 1, MT2, 120 h, read-out: EC50 μM

`Cc1nc2cc(-c3ccccc3)nn2c(N2CCC(C(C)C)CC2)c1C(OC(C)(C)C)C(=O)O` (stereo not shown) [Example 16] was tested. Which EC50 did it give?
The EC50 was 0.77 µM.

Which EC50 does the source give for `Cc1nc2cc(-c3ccccc3)nn2c(N2CCC(C)(C)CC2)c1C(OC(C)(C)C)C(=O)O` (stereo not shown) [Example 1, 2-(tert-butoxy)-2-(7-(4,4-dimethylpiperidin-1-yl)-5-methyl-2-phenylpyrazolo[1,5a]pyrimidin-6-yl)acetic acid] here?
Its EC50 is 0.55 µM.

Same assay, conditions: read-out: Activity; MT-2 cells infected with NL-RLuc virus, 5 days of incubation, luciferase readout; serum condition not given

`Cc1nc2cc(-c3cccc(-c4ccccc4F)c3)nn2c(N2CCC3(C)CC3C2)c1[C@H](OC(C)(C)C)C(=O)O` (stereo partly drawn) [Example 64, (2S)-2-(tert-Butoxy)-2-(2-(2′-fluoro-[1,1′-biphenyl]-3-yl)-5-methyl-7-(6-methyl-3-azabicyclo[4.1.0]heptan-3-yl)pyrazolo[1,5-a]pyrimidin-6-yl)acetic acid] was tested. Which EC50 did it give?
The EC50 was 0.1 to 1 µM.
